The results in this text go back to ChEMBL document CHEMBL5518220, “The Discovery of 7-Isopropoxy-2-(1-methyl-2-oxabicyclo[2.1.1]hexan-4-yl)-N-(6-methylpyrazolo[1,5-a]pyrimidin-3-yl)imidazo[1,2-a]pyrimidine-6-carboxamide (BIO-7488), a Potent, Selective, and CNS-Penetrant IRAK4 Inhibitor for the Treatment of Ischemic Stroke” (J Med Chem, 2024).

The nature of series [1]: Metabolic stability in human liver microsomes assessed as intrinsic clearance. The following applies: read-out: CLH. Format: ADME, Microsome. (In general: Liver microsomes are a subcellular fraction often used to study metabolism.)
Series [2] is described as follows: Metabolic stability in rat liver microsomes assessed as intrinsic clearance. Format: ADME, Microsome. The following applies: read-out: CLH.
For series [3], the system named is MDR1 (P-gp). The experiment in a line: Efflux ratio of apparent permeability across basolateral to apical side over apical to basolateral side in MDCK-MDR1 cells at 1 uM incubated for 120 mins by LC-MS/MS analysis. Type of series: ADME, cell-based, Canis lupus familiaris. Particulars: dog.
Series [4] in a line: Unbound brain-to-plasma concentration ratio in iv dosed rat measured at 4 to 24 hrs by LC-MS/MS analysis. Type of series: ADME, organism-based. The following applies: brain and plasma, time 4-24 hrs, read-out: K(p,uu,brain).
Series [5] in a line: Drug metabolism in human liver microsomes assessed as oxidative metabolism at methyl-THF moiety at 10 uM incubated for 60 mins by LC-MS/MS analysis. Format: ADME, Microsome. The following applies: 1 h.
Series [6] in a line: Drug metabolism in male Sprague-Dawley rat liver microsomes assessed as oxidative metabolism at methyl-THF moiety at 10 uM incubated for 60 mins by LC-MS/MS analysis. Format: ADME, Microsome. Particulars: 1 h.
In series [7] the target is T1, Interleukin-1 receptor-associated kinase 4 (Homo sapiens, UniProt Q9NWZ3).
T1 sequence (Q9NWZ3 whole entry): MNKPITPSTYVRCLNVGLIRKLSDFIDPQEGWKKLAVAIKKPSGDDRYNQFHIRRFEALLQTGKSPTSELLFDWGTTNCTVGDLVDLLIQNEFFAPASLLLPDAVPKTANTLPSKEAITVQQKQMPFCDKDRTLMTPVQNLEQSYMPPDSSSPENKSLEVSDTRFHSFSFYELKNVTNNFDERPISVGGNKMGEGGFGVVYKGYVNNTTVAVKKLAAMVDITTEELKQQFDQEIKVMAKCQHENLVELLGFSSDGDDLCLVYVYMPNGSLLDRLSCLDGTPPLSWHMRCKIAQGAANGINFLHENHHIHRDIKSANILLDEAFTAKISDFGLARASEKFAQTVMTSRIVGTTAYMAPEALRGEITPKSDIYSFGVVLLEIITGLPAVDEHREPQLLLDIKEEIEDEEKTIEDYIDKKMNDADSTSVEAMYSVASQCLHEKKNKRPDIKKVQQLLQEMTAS

Series [8] is described as follows: Metabolic stability in human hepatocytes assessed as intrinsic clearance. Format: ADME, cell-based, Hepatocyte. The following applies: read-out: CLH.
A short description of series [9]: Clearance in rat at 1 mg/kg, iv by LC-MS/MS analysis. Format: ADME, organism-based. The following applies: in vivo.
Series [10] is described as follows: Unbound clearance in rat at 1 mg/kg, iv by LC-MS/MS analysis. Format: ADME, organism-based. The following applies: in vivo.
Series [11] concerns Mus musculus. Description: Inhibition of LPS-induced IL-1beta production in po dosed female C57BL/6 mouse assessed as reduction in IL-1beta level in plasma administered via oral gavage for 60 mins followed by LPS stimulation at 0.5 mg/kg, ip measured after 90 mins by ELISA. Type of series: functional, organism-based.
Series [12] concerns Mus musculus. The experiment in a line: Inhibition of LPS-induced TNF-alpha production in po dosed female C57BL/6 mouse assessed as reduction in TNF-alpha level in plasma administered via oral gavage for 60 mins followed by LPS stimulation at 0.5 mg/kg, ip measured after 90 mins by ELISA. Format: functional, organism-based. On the technique in general: ELISA stands for enzyme-linked immunosorbent assay.

The subject of series [13] is Mus musculus. The experiment in a line: Inhibition of LPS-induced IL-6 production in po dosed female C57BL/6 mouse assessed as reduction in IL-6 level in plasma administered via oral gavage for 60 mins followed by LPS stimulation at 0.5 mg/kg, ip measured after 90 mins by ELISA. Format: functional, organism-based.
Series [14] is described as follows: Inhibition of […] induced IL-1beta production in human whole blood preincubated for 1 hr followed by R848 stimulation and measured after 4 hrs by MSD assay. Type of series: functional, tissue-based.
Series [15] can be described thus: Lipophilicity, logD of compound in n-octanol and aqueous buffer at pH 7.4 by RP-HPLC method. Type of series: physicochemical.
For series [16], the target named is T2, Dual specificity mitogen-activated protein kinase kinase 5 (Homo sapiens) (UniProt Q13163).
T2 sequence (whole entry): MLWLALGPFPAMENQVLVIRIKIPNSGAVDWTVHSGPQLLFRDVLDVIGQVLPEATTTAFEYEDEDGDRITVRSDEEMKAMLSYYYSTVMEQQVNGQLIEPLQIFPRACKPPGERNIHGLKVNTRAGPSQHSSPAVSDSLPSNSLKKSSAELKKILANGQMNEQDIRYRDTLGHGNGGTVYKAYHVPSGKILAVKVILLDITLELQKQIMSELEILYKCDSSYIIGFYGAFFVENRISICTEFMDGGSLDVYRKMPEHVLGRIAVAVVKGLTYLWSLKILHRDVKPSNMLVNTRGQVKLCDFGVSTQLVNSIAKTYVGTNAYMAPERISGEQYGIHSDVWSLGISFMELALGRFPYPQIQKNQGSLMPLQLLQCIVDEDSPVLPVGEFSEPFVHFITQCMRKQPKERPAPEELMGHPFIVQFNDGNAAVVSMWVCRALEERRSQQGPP
Description: Binding affinity to MEK5 (unknown origin) at 100 to 1000 nM relative to control. Particulars: dose 100-1000 nM.

Series [17] can be described thus: AUCinfinity in rat at 1 mg/kg, iv by LC-MS/MS analysis. Type of series: ADME, organism-based. The following applies: in vivo.
Series [18] in a line: Volume of distribution at steady state in rat at 1 mg/kg, iv by LC-MS/MS analysis. Type of series: ADME, organism-based. The following applies: in vivo, read-out: Vdss.
Series [19] can be described thus: Half life in rat at 1 mg/kg, iv by LC-MS/MS analysis. Particulars: in vivo. Type of series: ADME, organism-based.
A short description of series [20]: Tmax in rat at 1 mg/kg, po by LC-MS/MS analysis. Type of series: ADME, organism-based. Particulars: in vivo.
Series [21] in a line: Oral bioavailability in rat at 1 mg/kg by LC-MS/MS analysis. Type of series: ADME, organism-based. Particulars: in vivo.
Series [22] can be described thus: AUCinfinity in mouse at 1 mg/kg, iv by LC-MS/MS analysis. Type of series: ADME, organism-based. The following applies: in vivo.
Series [23] in a line: Clearance in mouse at 1 mg/kg, iv by LC-MS/MS analysis. Particulars: in vivo. Format: ADME, organism-based.
A short description of series [24]: Unbound clearance in mouse at 1 mg/kg, iv by LC-MS/MS analysis. Format: ADME, organism-based. The following applies: in vivo.
Series [25] in a line: Volume of distribution at steady state in mouse at 1 mg/kg, iv by LC-MS/MS analysis. Type of series: ADME, organism-based. Particulars: in vivo, read-out: Vdss.
Series [26] is described as follows: Half life in mouse at 1 mg/kg, iv by LC-MS/MS analysis. Format: ADME, organism-based. Particulars: in vivo.
A short description of series [27]: Tmax in mouse at 1 mg/kg, po by LC-MS/MS analysis. Format: ADME, organism-based. The following applies: in vivo.
Series [28] can be described thus: Oral bioavailability in mouse at 1 mg/kg by LC-MS/MS analysis. Format: ADME, organism-based. The following applies: in vivo.
Series [29] can be described thus: AUCinfinity in cynomolgus monkey at 1 mg/kg, iv by LC-MS/MS analysis. Format: ADME, organism-based, Macaca fascicularis. The following applies: in vivo.
Series [30] in a line: Clearance in cynomolgus monkey at 1 mg/kg, iv by LC-MS/MS analysis. Format: ADME, organism-based, Macaca fascicularis. The following applies: in vivo.
Series [31] in a line: Unbound clearance in cynomolgus monkey at 1 mg/kg, iv by LC-MS/MS analysis. Format: ADME, organism-based, Macaca fascicularis. The following applies: in vivo.
A short description of series [32]: Volume of distribution at steady state in cynomolgus monkey at 1 mg/kg, iv by LC-MS/MS analysis. Format: ADME, organism-based, Macaca fascicularis. The following applies: in vivo, read-out: Vdss.
Series [33] can be described thus: Half life in cynomolgus monkey at 1 mg/kg, iv by LC-MS/MS analysis. Type of series: ADME, organism-based, Macaca fascicularis. The following applies: in vivo.
Series [34] in a line: Tmax in cynomolgus monkey at 1 mg/kg, po by LC-MS/MS analysis. Type of series: ADME, organism-based, Macaca fascicularis. Particulars: in vivo.
A short description of series [35]: Oral bioavailability in cynomolgus monkey at 1 mg/kg by LC-MS/MS analysis. Format: ADME, organism-based, Macaca fascicularis. The following applies: in vivo.
A short description of series [36]: AUCinfinity in dog at 1 mg/kg, iv by LC-MS/MS analysis. Particulars: in vivo. Format: ADME, organism-based, Canis lupus familiaris.
A short description of series [37]: Clearance in dog at 1 mg/kg, iv by LC-MS/MS analysis. Format: ADME, organism-based, Canis lupus familiaris. Particulars: in vivo.
The nature of series [38]: Unbound clearance in dog at 1 mg/kg, iv by LC-MS/MS analysis. Format: ADME, organism-based, Canis lupus familiaris. The following applies: in vivo.
A short description of series [39]: Volume of distribution at steady state in dog at 1 mg/kg, iv by LC-MS/MS analysis. Type of series: ADME, organism-based, Canis lupus familiaris. The following applies: in vivo, read-out: Vdss.
A short description of series [40]: Half life in dog at 1 mg/kg, iv by LC-MS/MS analysis. Format: ADME, organism-based, Canis lupus familiaris. Particulars: in vivo.
A short description of series [41]: Tmax in dog at 1 mg/kg, po by LC-MS/MS analysis. Format: ADME, organism-based, Canis lupus familiaris. Particulars: in vivo.
Series [42] is described as follows: Oral bioavailability in dog at 1 mg/kg by LC-MS/MS analysis. Type of series: ADME, organism-based, Canis lupus familiaris. Particulars: in vivo.
Series [43] is described as follows: Free drug level in male C57BL/6 mouse plasma at 10 mg/kg, po qd measured on 3 to 7 days. Type of series: ADME, organism-based. Particulars: in vivo, time 3-7 day.

As for `CCOc1cc2nc(C[C@@H]3CCOC3)cn2cc1NC(=O)c1cccc(C(F)F)n1`, the values for the CLint scaled in series [1] and in series [2] were 62 mL/min/kg and 171 mL/min/kg, respectively. In addition, the efflux ratio at 2 h, 1 µM in series [3] came to 1.5. Further, in series [4], the Kp uu turned out to be 0.9. The Drug metabolism result in [5] and in series [6] was “Metabolite_Detected” throughout. Moreover, 0.9 nM corresponded to half-maximal inhibition in series [7] (IC50).
`Cc1cnc2c(NC(=O)c3cn4cc(C56COC(C)(C5)C6)nc4nc3OC(C)C)cnn2c1`: the CLint scaled was less than 5 mL/min/kg in [1] and 2.5 mL/min/kg in series [8]. Moreover, the clearance was 2.1 mL/min/kg in series [9], 1.8 mL/min/kg in series [23], 2.7 mL/min/kg in [30] and 3.5 mL/min/kg in series [37]. Also, the CL free was determined as 30 mL/min/kg in series [10], 19 mL/min/kg in series [24], 14 mL/min/kg in series [31] and 5.3 mL/min/kg in series [38]. Besides, the inhibition entry in series [11], in series [12] and in series [13] was “Dose-Dependent Effect” each time. Besides, 200 nM corresponded to half-maximal inhibition in [14] (Homo sapiens, Blood) (IC50). In addition, in [14] (time 5 hrs), the fIC50 turned out to be 13 nM. The same molecule had a logD in series [15] of 2.9. In series [16], this molecule registered an Activity greater than 80%. Moreover, the AUC(0-inf) in [17] came out at 6530 ng·h/mL; in series [22], 9460 ng·h/mL; in series [29] it was 6440 ng·h/mL; in series [36], 3190 ng·h/mL. For the same molecule, the Vd in series [18] was determined as 2.2 L/kg; in series [25], 0.75 L/kg; in series [32] it was 1.7 L/kg; in [39], 2.8 L/kg. In addition, the half-life in series [19] was 12 h; in series [26] it was 5 h; in series [33], 8.3 h; in series [40], 10 h. Further, the Tmax stood at 4.7 h in [20], 1 h in series [27], 2 h in series [34] and 2.6 h in series [41]. The bioavailability in series [21] amounted to 91%; in [28] it was 98%; in [35], 95%; in series [42] it was 96%. The “Cp(f)” value in series [43] is reported as 10 nM.

What is called efflux ratio is a quotient of directional permeabilities that is used to spot active efflux. A word on the IC50: it is the concentration needed to halve the response being measured. For orientation: clearance means a measure of how efficiently the substance is removed, as volume per time. As a reminder, the logD is the decadic logarithm of the distribution of all forms, ionised or not, between an organic phase and buffer at a given pH. By AUC(0-inf) is commonly meant the area under the concentration-time curve extrapolated to infinity. The term half-life denotes the time in which the quantity being followed falls by half. One may read the Tmax as the time from dosing to the highest level. What is called bioavailability is the share of a dose that reaches the circulation, judged against a reference dose that is usually intravenous.
